Assay results taken from US20220016142A1, “COMBINATION THERAPY FOR TREATMENT OF CANCER” (PLUS VITECH, S.L., priority 2018, published 2022).

Test system: B16F10 cells (melanoma)
Experiment: B16F10 melanoma tumor growth in mice (Example 2b)
Format: in vivo, C57BL/6J mice
Conditions: maropitant 30 mg/kg i.p. once a day, anti CTLA-4 5 mg/kg i.p. every other day, FIG. 5
Procedure: One Lewis Pulmonar Carcinoma cell line: 3LL; and one melanoma cell line: B16F10 (ATCC cell bank; LGC Standards); were used in this study. Both cell lines were maintained in culture in Dulbecco's modified Eagle's medium (DMEM) (Gibco, Thermo Fisher Scientific) supplemented with 10% foetal bovine serum (FBS) (Gibco, Thermo Fisher Scientific), 2 mM L-glutamine (Sigma-Aldrich, Merk) and Peni-Strep (50 U/ml and […]; Gibco, Thermo Fisher Scientific) in a humidified incubator at 37° C. and 5% CO2.
Cerenia® (maropitant citrate injectable solution; Zoetis US) was injected intraperitoneally at a dose of 30 mg/kg, once a day. […]
3LL cells (0.6×10^6 per mouse) or B16F10 cells (1×10^6 per mouse) were subcutaneously injected into the right flank of C57BL/6J mice (Charles River) with matrigel (Matrigel Membrane Matrix, Corning) at 50% v/v. Tumor growth was evaluated every 2/3 days. Animal vital parameters were monitored daily. […]
In order to evaluate the effect of Maropitant and anti CTLA-4 combination in vivo, B16F10 tumor-bearing mice were randomly assigned into four treatment groups as detailed in table 1 (n=6 mice per group) to receive either Maropitant 30 mg/kg, anti CTLA-4 5 mg/kg, the combination of both agents or the equivalent volume of vehicle. Tumor growth was recorded as detailed in Materials and Methods. […]

Structure (SMILES): COc1ccc(C(C)(C)C)cc1CN[C@H]1C2CCN(CC2)[C@H]1C(c1ccccc1)c1ccccc1.O=C(O)CC(O)(CC(=O)O)C(=O)O [Maropitant, maropitant citrate]
- reduction in tumor growth compared to vehicle group (after 9 days of treatment): 28%
- effect on growth of melanoma tumours (in words) (9 days): inhibited the grown of melanoma tumours
